Measured values taken from paper PMC4646021, “Streptococcus pneumoniae NanC” (The Journal of Biological Chemistry, 2015).

Key:
[1] = target: T1, NanC (scheme A) (Streptococcus pneumoniae, UniProt A0A0H2UQE4); assay: X-ray crystal structure, soak; type: binding
T1 construct: gene SP_1326; residues 28-740, signal peptide removed (CBM plus catalytic domain); pET21b, E. coli Rosetta (DE3), nickel column; 82 kDa

[2] = target: T2, NanC CBM (Streptococcus pneumoniae, UniProt A0A0H2UQE4); assay: isothermal titration calorimetry; type: binding; conditions: 20 mM Tris pH 8, 50 mM NaCl; stoichiometry fixed 1:1; CBM site
T2 construct: gene SP_1326; purified by scheme A
T2 sequence (A0A0H2UQE4 entry or part of it): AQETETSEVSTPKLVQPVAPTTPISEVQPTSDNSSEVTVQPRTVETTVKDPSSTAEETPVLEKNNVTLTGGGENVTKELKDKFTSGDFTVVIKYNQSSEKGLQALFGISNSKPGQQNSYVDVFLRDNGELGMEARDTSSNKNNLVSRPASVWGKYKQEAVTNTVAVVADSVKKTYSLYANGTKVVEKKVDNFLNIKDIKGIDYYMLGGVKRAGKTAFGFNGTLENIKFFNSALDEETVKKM

T1 sequence (A0A0H2UQE4 entry or part of it): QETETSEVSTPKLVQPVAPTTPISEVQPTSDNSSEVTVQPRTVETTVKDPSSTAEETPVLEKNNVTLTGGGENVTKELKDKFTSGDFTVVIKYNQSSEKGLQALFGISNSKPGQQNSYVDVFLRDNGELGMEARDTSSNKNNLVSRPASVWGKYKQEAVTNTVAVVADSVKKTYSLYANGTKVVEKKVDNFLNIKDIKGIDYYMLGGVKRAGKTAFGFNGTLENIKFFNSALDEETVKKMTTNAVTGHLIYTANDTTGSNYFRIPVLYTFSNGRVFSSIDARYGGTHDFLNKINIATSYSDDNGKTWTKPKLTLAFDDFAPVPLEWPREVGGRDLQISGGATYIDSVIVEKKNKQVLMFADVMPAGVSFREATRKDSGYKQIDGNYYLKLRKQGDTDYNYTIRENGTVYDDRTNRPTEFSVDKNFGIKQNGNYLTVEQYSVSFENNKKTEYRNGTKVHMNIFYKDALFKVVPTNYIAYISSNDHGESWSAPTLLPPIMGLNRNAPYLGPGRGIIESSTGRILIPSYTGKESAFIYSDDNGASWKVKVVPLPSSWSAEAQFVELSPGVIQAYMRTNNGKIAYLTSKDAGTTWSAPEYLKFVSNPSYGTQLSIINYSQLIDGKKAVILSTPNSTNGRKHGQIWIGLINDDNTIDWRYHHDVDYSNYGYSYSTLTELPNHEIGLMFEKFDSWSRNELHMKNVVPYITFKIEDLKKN

CC(=O)N[C@H]1[C@H]([C@H](O)[C@H](O)CO)OC(F)(C(=O)O)C(F)[C@@H]1O (stereo partly shown) [2,3F-Neu5Ac]
X-ray crystal structure, soak ([1]; covalent, active site Tyr-695 adduct 3F-β-Neu5Ac, 5 mM, 45 min soak, intact compound also in CBM site): 3F-β-Neu5Ac was covalently bound to Tyr-695 in an unstrained

CC(=O)N[C@H]1[C@H]([C@H](O)[C@H](O)CO)O[C@@](O[C@H]2[C@@H](O)[C@@H](CO)O[C@@H](O[C@H]3[C@H](O)[C@@H](O)C(O)O[C@@H]3CO)[C@@H]2O)(C(=O)O)C[C@@H]1O (stereo partly shown) [3′SL]
Kd [2]: 1480 µM

CC(=O)N[C@H]1[C@H]([C@H](O)[C@H](O)CO)O[C@@](OC[C@H]2O[C@@H](O[C@H]3[C@H](O)[C@@H](O)C(O)O[C@@H]3CO)[C@H](O)[C@@H](O)[C@H]2O)(C(=O)O)C[C@@H]1O (stereo partly shown) [6′SL]
Kd [2]: 1600 µM

CCC(CC)O[C@@H]1C=C(C(=O)O)C[C@H](N)[C@H]1NC(C)=O [OC]
X-ray crystal structure, soak ([1]; catalytic active site, 20 mM, 5 min soak): OC binds in the NanC active site
